Key:
[1] = tested on: L6; test: Induction of mitochondrial uncoupling in rat L6 cells assessed as stimulation of cellular oxygen consumption; type: functional, cell-based
[2] = tested on: L6; test: Induction of mitochondrial uncoupling in rat L6 cells assessed as stimulation of cellular oxygen consumption relative to control; type: functional
[3] = Rattus norvegicus, L6, read-out: EC50

Row | Compound | EC50 ([1]; l6) | %max [2] [%] | EC50 [1, 3] [µM]
1 | c1ccc(Nc2nc3nonc3nc2Nc2ccccn2)nc1 | ND(Insoluble) | – | –
2 | CCCCCCNc1nc2nonc2nc1NCCCCCC | ND(Insoluble) | 160.2 | –
3 | Fc1ccc(Nc2nc3nonc3nc2Nc2ccc(F)cc2F)c(F)c1 | – | 222.6 | 0.04
4 | c1ccc(Oc2nc3nonc3nc2Oc2ccccc2)cc1 | ND(Insoluble) | 98.3 | –
5 | CCONc1nc2nonc2nc1NOCC | ND(Insoluble) | 100 | –
6 | Clc1ccc(Nc2nc3nonc3nc2Nc2ccc(Cl)cc2)cc1 | – | 190.4 | 0.27
7 | Fc1ccc(Nc2nc3nonc3nc2Nc2ccc(F)cc2)cc1 | – | 204 | 0.46
8 | Ic1ccccc1Oc1nc2nonc2nc1Oc1ccccc1I | ND(Insoluble) | 98.8 | –
9 | Fc1cccc(Nc2nc3nonc3nc2Nc2cccc(F)c2)c1 | – | 220.8 | 0.18
10 | Fc1ccccc1Oc1nc2nonc2nc1Oc1ccccc1F | ND(Insoluble) | 93 | –
11 | CCCCNc1nc2nonc2nc1NCCCC | ND(Insoluble) | 116 | –
12 | FC(F)(F)CONc1nc2nonc2nc1NOCC(F)(F)F | ND(Insoluble) | 96.3 | –
13 | CCCNc1nc2nonc2nc1NCCC | ND(Insoluble) | 98 | –
14 | c1ccc(Nc2nc3nonc3nc2Nc2ccccc2)cc1 | ND(Insoluble) | 172.8 | –

— ChEMBL document CHEMBL3627668, “Structure-activity relationships of furazano[3,4-b]pyrazines as mitochondrial uncouplers” (Bioorg Med Chem Lett, 2015)
